Reference: US20120135989A1, “AZAINDOLE DERIVATIVE” (CRYSTALGENOMICS, INC., priority 2010, published 2012)
Where two headings read alike, the source gives them in different places.

Assays:
[1] = target: T1, human Cdc7/human ASK conjugated protein (Homo sapiens, UniProt O00311); experiment: Cdc7 protein kinase inhibitory action (Cdc7-ASK kinase activity, 32P-labeled MCM2); type: biochemical; details: substrate mouse MCM2-4(his)-6-7(his) conjugated protein, 0.1 mM ATP, 30° C. for 45 minutes; read-out: Activity (uM) ELISA (IC50)
T1 construct: purchased CARNA BIOSCIENCES
T1 sequence (O00311 whole entry): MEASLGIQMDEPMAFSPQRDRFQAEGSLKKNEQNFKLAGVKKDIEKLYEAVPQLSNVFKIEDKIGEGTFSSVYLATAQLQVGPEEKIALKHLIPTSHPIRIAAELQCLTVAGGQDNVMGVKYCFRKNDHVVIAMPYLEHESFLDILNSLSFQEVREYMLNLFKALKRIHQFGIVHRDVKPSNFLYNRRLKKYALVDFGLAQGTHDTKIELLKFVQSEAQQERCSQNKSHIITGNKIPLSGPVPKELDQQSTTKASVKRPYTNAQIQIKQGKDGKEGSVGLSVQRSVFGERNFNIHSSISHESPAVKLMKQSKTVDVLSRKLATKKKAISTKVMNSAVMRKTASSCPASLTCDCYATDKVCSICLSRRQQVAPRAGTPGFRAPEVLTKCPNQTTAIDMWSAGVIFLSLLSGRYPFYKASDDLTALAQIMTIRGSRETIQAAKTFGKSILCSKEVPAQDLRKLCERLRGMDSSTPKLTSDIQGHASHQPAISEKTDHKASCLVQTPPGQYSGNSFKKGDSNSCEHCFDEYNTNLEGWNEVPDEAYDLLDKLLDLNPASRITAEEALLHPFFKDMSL
T1 sequence (Q9UBU7 whole entry partner): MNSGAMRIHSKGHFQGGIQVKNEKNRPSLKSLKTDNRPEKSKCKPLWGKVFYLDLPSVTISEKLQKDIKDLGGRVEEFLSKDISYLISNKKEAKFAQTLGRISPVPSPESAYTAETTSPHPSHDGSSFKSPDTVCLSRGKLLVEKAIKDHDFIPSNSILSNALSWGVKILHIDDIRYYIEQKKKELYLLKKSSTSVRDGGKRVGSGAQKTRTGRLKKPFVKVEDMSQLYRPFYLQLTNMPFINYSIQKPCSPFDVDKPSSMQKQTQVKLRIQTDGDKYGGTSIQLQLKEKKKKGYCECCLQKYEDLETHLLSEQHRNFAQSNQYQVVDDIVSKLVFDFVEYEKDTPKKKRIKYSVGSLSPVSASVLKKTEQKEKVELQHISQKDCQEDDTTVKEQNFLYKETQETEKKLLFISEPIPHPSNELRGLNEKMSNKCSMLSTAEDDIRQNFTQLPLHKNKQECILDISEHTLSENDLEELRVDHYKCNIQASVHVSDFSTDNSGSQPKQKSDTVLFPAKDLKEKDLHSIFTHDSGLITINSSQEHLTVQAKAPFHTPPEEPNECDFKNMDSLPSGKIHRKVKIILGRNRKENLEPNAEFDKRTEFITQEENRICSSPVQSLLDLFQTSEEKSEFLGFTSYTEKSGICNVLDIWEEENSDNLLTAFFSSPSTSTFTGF
Experimental: Cdc7 protein kinase inhibitory action of the (di)azaindole derivatives shown in Table 4 was evaluated according to the following operations.
As a substrate for evaluating the enzymatic activity, mouse MCM2-4(his)-6-7 (his) conjugated protein was synthesized. First, the following genes were cloned into a pAcUW31 vector (Pharmingen).
Mouse MCM2 (Genbank/EMBL No. D86725);
N-His-mouse MCM4 (Genbank/EMBL No. D26089, a His6 tag was added to an N-terminal);
Mouse MCM6 (Genbank/EMBL No. D86726), and
N-His-mouse MCM7 (Genbank/EMBL No. D26091, a His6 tag was added to an N-terminal).
The Mouse MCM2 gene and the N-His-mouse MCM7 gene were inserted into the BamHI site and the EcoRI site of the pAcUW31 vector (Mom2-7 Vector), respectively. The mouse MCM6 gene and the N-His-mouse MCM4 gene were inserted into the BamHI site and the EcoRI site of the pAcUW31 vector (MGm-4-6 Vector), respectively. Then, in order to produce a recombinant mouse MCM2-7 (his) and mouse MCM4 (his)-6 Baculovirus, BaculoGold AoNPV Baculovirus DNA (BD/Pharmingen) and an Mcm2-7 Vector or an Mcm-4-6 Vector were cotransfected to SD insect cells. The obtained Mcm2-7 and Mom-4-6 virus were coinfected to Hi5 insect cells. Thereby, a mouse MCM2-4 (his)-6-7 (his) conjugated protein was obtained. Purified mouse MCM2-4 (his)-6-7 (his) conjugated protein (0.5 μg) was used as a substrate.
The substrate (mouse MCM2-4(his)-6-7(his) conjugated protein) (0.5 μg) and kinase enzyme (human Cdc7/human ASK conjugated protein, CARNA BIOSCIENCES) (0.1 μg) were mixed in a microtube. A kinase reaction buffer containing 0.1 μL of γ-^32P ATP (Perkin Elmer) was added as a tracer into the same microtube. The composition of the kinase buffer includes the followings.
40 mM HEPES-KOH buffer pH 7.6,
Furthermore, 0.5 μL of each of the test compounds ((di)azaindole derivatives 10 μM, 100 μM, and 1000 μM, respectively) was added and reacted at 30° C. for 45 minutes. After the reaction, the substrate was separated by SDS-PAGE method, and protein was stained by the silver staining method (2D-silver staining reagent H “Daiichi,” Daiichi Pure Chemicals Co., Ltd.).
The radioactivity of ^32P-labeled MCM2 protein was detected by autoradiography, and the radioactivity of the band of MCM2 protein was measured by a liquid scintillation counter (LSC-6100, ALOKA). As to the Cdc7-ASK kinase activity, the radioactivity at the time when the each of the test compounds was added was calculated in percent when the radioactivity at the time when DMSO (0.5 μL) was added instead of the test compound (0.5 μL) that had been added immediately before the reaction was made to be 100%. Based on the obtained results, IC 50 value of each test compound was calculated. IC50 with respect to Cdc7-ASK kinase of the main (di)azaindole derivatives shown in Table 5 was about 0.001 μM to 0.008 μM.

[2] = target: T1, human Cdc7/human ASK conjugated protein; experiment: as above; type: biochemical; details: substrate mouse MCM2-4(his)-6-7(his) conjugated protein, 0.1 mM ATP, 30° C. for 45 minutes; read-out: Activity (uM) ELISA (IC50); remark: listed apart in the source

Row | Compound | IC50 [1] [µM] | IC50 [2] [µM]
1 | Cc1cc(OCCN(C)C)ccc1/N=C1/NC(=O)/C(=C/c2c[nH]c3ncncc23)S1 [Compound 11, (2Z,5Z)-2-{4-(2-dimethylamino)ethoxy-2-methylphenyl}azamethylene-5-(7H-pyrrolo[2,3-d]pyrimidin-5-yl)methylene-1,3-thiazolidin-4-one] | 0.005 | 
2 | Cc1ccc(/N=C2/NC(=O)/C(=C/c3c[nH]c4ncccc34)S2)c(C)c1 [Compound 2, (2Z,5Z)-2-(2,4-dimethylphenyl)azamethylene-5-(1H-pyrrolo[2,3-b]pyridin-3-yl)methylene-1,3-thiazolidin-4-one] | 0.001 | 
3 | CN(C)CCOc1ccc(/N=C2/NC(=O)/C(=C/c3c[nH]c4ncccc34)S2)c(Cl)c1 [Compound 10, (2Z,5Z)-2-{2-chloro-4-(2-dimethylamino)ethoxyphenyl}azamethylene-5-(1H-pyrrolo[2,3-b]pyridin-3-yl)methylene-1,3-thiazolidin-4-one] | 0.002 | 
4 | CN1CCC(Oc2ccc(/N=C3/NC(=O)/C(=C/c4c[nH]c5ncncc45)S3)c(C(F)(F)F)c2)C1 (centres unmarked) [Compound 20, (2Z,5Z)-2-{4-(1-methylpyrrolidin-3-yl)oxy-2-trifluoromethylphenyl}azamethylene-5-(7H-pyrrolo[2,3-d]pyrimidin-5-yl)methylene-1,3-thiazolidin-4-one] | 0.007 | 
5 | CN1CCC(Oc2ccc(/N=C3/NC(=O)/C(=C/c4c[nH]c5ncccc45)S3)c(C(F)(F)F)c2)CC1 [Compound 23, (2Z,5Z)-2-{4-(1-methyl-piperidin-4-yl)oxy-2-trifluoromethylphenyl}azamethylene-5-(1H-pyrrolo[2,3-b]pyridm-3-yl)methylene-1,3-thiazolidin-4-one] | 0.003 | 
6 | COc1ccc(/N=C2/NC(=O)/C(=C/c3c[nH]c4ncccc34)S2)c(C)c1 [Compound 1, (2Z,5Z)-2-(4-methoxy-2-methylphenyl)azamethylene-5-(1H-pyrrolo[2,3-b]pyridin-3-yl)methylene-1,3-thiazolidin-4-one] | 0.0012 | 
7 | Cc1cc(OCCN(C)C)ccc1/N=C1/NC(=O)/C(=C/c2c[nH]c3ncccc23)S1 [Compound 5, (2Z,5Z)-2-{4-(2-dimethylamino)ethoxy-2-methylphenyl}azamethylene-5-(1H-pyrrolo[2,3-b]pyridin-3-yl)methylene-1,3-thiazolidin-4-one] | 0.0019 | 
8 | CN1CCC(Oc2ccc(/N=C3/NC(=O)/C(=C/c4c[nH]c5ncccc45)S3)c(Cl)c2)C1 (centres unmarked) [Compound 12, (2Z,5Z)-2-{2-chloro-4-(1-methylpyrrolidin-3-yl)oxyphenyl}azamethylene-5-(1H-pyrrolo[2,3-b]pyridin-3-yl)methylene-1,3-thiazolidin-4-one] | 0.001 | 
9 | Cc1cc(OC2CCN(C)C2)ccc1/N=C1/NC(=O)/C(=C/c2c[nH]c3ncncc23)S1 (centres unmarked) [Compound 15, (2Z,5Z)-2-{4-(1-methylpyrrolidin-3-yl)oxy-2-methylphenyl}azamethylene-5-(7H-pyrrolo[2,3-d]pyrimidin-5-yl)methylene-1,3-thiazolidin-4-one] | 0.008 | 
10 | Cc1cc(OCCN2CCOCC2)ccc1/N=C1/NC(=O)/C(=C/c2c[nH]c3ncccc23)S1 [Compound 9, (2Z,5Z)-2-{4-(2-morpholino)ethoxy-2-metlhylphenyl}azamethylene-5-(1H-pyrrolo[2,3-b]pyridin-3-yl)methylene-1,3-thiazolidin-4-one] |  | 0.0017
11 | CN(C)CCOc1ccc(/N=C2/NC(=O)/C(=C/c3c[nH]c4ncncc34)S2)c(C(F)(F)F)c1 [Compound 19, (2Z,5Z)-2-{4-(2-dimethylamino)ethoxy-2-trifluoromethylphenyl}azamethylene-5-(7H-pyrrolo[2,3-d]pyrimidin-5-yl)methylene-1,3-thiazolidin-4-one] | 0.006 | 
12 | CN1CCC(Oc2ccc(/N=C3/NC(=O)/C(=C/c4c[nH]c5ncccc45)S3)c(Cl)c2)CC1 [Compound 22, (2Z,5Z)-2-{2-chloro-4-(1-methyl-piperidin-4-yl)oxyphenyl}azamethylene-5-(1H-pyrrolo[2,3-b]pyridin-3-yl)methylene-1,3-thiazolidin-4-one] | 0.001 | 
13 | Cc1cc(OC2CCN(C)C2)ccc1/N=C1/NC(=O)/C(=C/c2c[nH]c3ncccc23)S1 (centres unmarked) [Compound 6, (2Z,5Z)-2-{4-(1-methylpyrrolidin-3-yl)oxy-2-methylphenyl}azamethylene-5-(1H-pyrrolo[2,3-b]pyridin-3-yl)methylene-1,3-thiazolidin-4-one] | 0.003 | 
14 | Cc1cc(OCCN2CCN(C)CC2)ccc1/N=C1/NC(=O)/C(=C/c2c[nH]c3ncccc23)S1 [Compound 7, (2Z,5Z)-2-[4-{2-(4-methylpiperazin-1-yl)}ethoxy-2-methylphenyl]azamethylene-5-(1H-pyrrolo[2,3-b]pyridin-3-yl)methylene-1,3-thiazolidin-4-one] | 0.0021 | 
15 | CN1CCC(Oc2ccc(/N=C3/NC(=O)/C(=C/c4c[nH]c5ncncc45)S3)c(Cl)c2)CC1 [Compound 21, (2Z,5Z)-2-{2-chloro-4-(1-methyl-piperidin-4-yl)oxyphenyl}azamethylene-5-(7H-pyrrolo[2,3-d]pyrimidin-5-yl)methylene-1,3-thiazolidin-4-one] | 0.003 | 
16 | CN1CCC(Oc2ccc(/N=C3/NC(=O)/C(=C/c4c[nH]c5ncccc45)S3)c(C(F)(F)F)c2)C1 (centres unmarked) [Compound 14, (2Z,5Z)-2-{4-(1-methylpyrrolidin-3-yl)oxy-2-trifluoromethylphenyl}azamethylene-5-(1H-pyrrolo[2,3-b]pyridin-3-yl)methylene-1,3-thiazolidin-4-one] | 0.002 | 
17 | (2Z,5Z)-2-{4-(1-methyl-piperidin-4-yl)oxy-2-methylphenyl}azamethylene-5-(1H-pyrrolo[2,3-b]pyridin-3-yl)methylene-1,3-thiazolidin-4-one [Compound 8] |  | 0.0011
18 | CN(C)CCOc1ccc(/N=C2/NC(=O)/C(=C/c3c[nH]c4ncccc34)S2)c(C(F)(F)F)c1 [Compound 13, (2Z,5Z)-2-{4-(2-dimethylamino)ethoxy-2-trifluoromethylphenyl}azamethylene-5-(1H-pyrrolo[2,3-b]pyridin-3-yl)methylene-1,3-thiazolidin-4-one] | 0.003 | 
19 | O=C1N/C(=N/c2ccc(C(=O)O)cc2)S/C1=C\c1c[nH]c2ncccc12 [Compound 4, (2Z,5Z)-2-(4-carboxyphenyl)azamethylene-5-(1H-pyrrolo[2,3-b]pyridin-3-yl)methylene-1,3-thiazolidin-4-one] | 0.018 | 
20 | CN1CCC(Oc2ccc(/N=C3/NC(=O)/C(=C/c4c[nH]c5ncncc45)S3)c(Cl)c2)C1 (centres unmarked) [Compound 18, (2Z,5Z)2-{2-chloro-4-(1-methylpyrrolidin-3-yl)oxyphenyl}azamethylene-5-(7H-pyrrolo[2,3-d]pyrimidin-5-yl)methylene-1,3-thiazolidin-4-one] | 0.002 | 
21 | Cc1cc(OC2CCN(C)CC2)ccc1/N=C1/NC(=O)/C(=C/c2c[nH]c3ncncc23)S1 [Compound 16, (2Z,5Z)-2-{4-(1-methyl-piperidin-4-yl)oxy-2-methylphenyl}azamethylene-5-(7H-pyrrolo[2,3-d]pyrimidin-5-yl)methylene-1,3-thiazolidin-4-one] | 0.006 | 
22 | Cc1cc(O)ccc1/N=C1/NC(=O)/C(=C/c2c[nH]c3ncccc23)S1 [Compound 3, (2Z,5Z)-2-(4-hydroxy-2-methylphenyl)azamethylene-5-(1H-pyrrolo[2,3-b]pyridin-3-yl)methylene-1,3-thiazolidin-4-one] | 0.0014 | 
23 | CN(C)CCOc1ccc(/N=C2/NC(=O)/C(=C/c3c[nH]c4ncncc34)S2)c(Cl)c1 [Compound 17, (2Z,5Z)-2-{2-chloro-4-(2-dimethylamino)ethoxyphenyl}azamethylene-5-(7H-pyrrolo[2,3-d]pyrimidin-5-yl)methylene-1,3-thiazolidin-4-one] | 0.002 | 
